# Laboratory results reported in patent US20070037833A1, “Compositions and methods for inhibiting neurodegeneration” (priority 2005, published 2007).
# “And” between values parts separate entries of the source, which are not always exact repeats. Equal entries are not always repeated. “Also recorded” adds a separate entry of the source.
# Legend:
# [1] = test system: motor neurons in embryonic rat spinal cord cultures; test: Excitotoxicity assay (100 μM kainic acid) in mixed spinal cord cultures; assay type: cell-based
# Procedure: Unless otherwise specified, BDNF was added to all cultures.
# Many previous in vitro investigations have identified motor neurons in mixed spinal cord cell culture by immunostaining for non-phosphorylated neurofilaments (or peripherin) and restricting analysis to cells with a soma diameter of 25 μm or greater (Carriedo et al., 2000; Hu and Kalb, 2003). We wanted to confirm the validity of this approach using an independent method for determining whether a given cell is a motor neuron. To specifically identify motor neurons in our cultures we purified these cells by metrizamide gradient and immunopanning techniques (Henderson et al., 1993; Fryer et al., 1999), live-labeled them with CM-DiI, and added these fluorescently-tagged, bona fide motor neurons to mixed cell cultures at the time of initial plating. All CM-DiI labeled cells stained for motor neurons markers such as non-phosphorylated neurofilament H (using antibody, SMI-32), peripherin, choline acetyl transferase (ChAT) and islet ½ (FIG. 1, panel a.). We then subjected spinal cord cultures to an excitotoxic insult and determined motor neuron survival using multiple methods for identifying motor neurons. […] Since all SMI-32 (+) cells with cell body diameter of 25 μm or greater were CM-DiI (+) and all CM-DiI (+) cells were SMI-32 (+), for the remainder of the studies herein, we could confidently study motor neuron death in vitro by counting SMI-32 (+) cells with a cell body diameter of 25 μm or greater.
# Trk = test: Immunoblot for phosphoTrk in spinal cord cultures; assay type: cell-based, rat
# Procedure: (§1) Cells were lysed in 1% NP-40 lysis buffers containing protease inhibitors, subjected to SDS-PAGE and immunoblotted as previously described (Fryer et al., 1999; Fryer et al., 2000). For immunoprecipitation, lysates from 60 mm dishes were pre-cleared by incubation with protein A beads (Santa Cruz), incubated with primary antibody (4 μg/ml)×2 hours then 50 μL of beads added and incubated overnight with gentle agitation at 4° C. Beads were pelleted, washed 5× with 10 mM Tris pH 7.4+0.5 mM EGTA+0.5 mM EDTA+0.1% NP40 before elution in 1× Laemelli sample buffer. Antibody sources: BD Transduction Labs—TrkB and MAP Kinase used at 1:500, Cell Signaling—Akt 1:1000; phosphoTrk (tyr490) 1:1000; phospho p42/44 MAP Kinase (thr 202/tyr204) 1:1000; phosphoAkt (ser473) 1:500; IGFI antibody (tyr 1131) 1:500. Upstate—adenosine A2a 1:1000. Sigma—actin 1:200. Biosource—active src (clone 28) 1:200.
# (§2) We next asked about the effect of the adenosine A2 receptor antagonism on Trk signaling. Cultures of spinal cord cells (grown in the presence of a cocktail of trophic factors including 10 ng/ml BDNF) received KW6002 (1 μM), MRS1754 (50 nM) or vehicle (DMSO 0.1%) and 24 hrs. later, lysates were prepared for immunoblots for Trk and the MAP kinase downstream signaling module (FIG. 2, panel a). Immunoblots for phosphoTrk and phosphoMAPK were employed to monitor the state of activation of these proteins.
# (§3) We followed up these observations by determining the effect of enprofylline on Trk signaling and determined the extent to which the resultant biochemical changes mimic the effects of direct pharmacological Trk antagonism with CEP4416. […] The effect of drug treatment on AKT was particularly marked. […] To determine the specificity of these agents, we examined their effect on Insulin-like growth factor 1 (IGF1) signaling through the IGF receptor tyrosine kinase (IGFR). […] It is unlikely that phosphodiesterase activity of enprofylline can explain these observations as increased cAMP levels enhance, not suppress, TrkB activation (Boulanger and Poo, 1999; Ji et al., 2005).
# MAP kinase = test: Immunoblot for phosphoMAPK in spinal cord cultures; assay type: cell-based, rat
# Procedure: as §1, §2, §3
# [2] = test system: IGF receptor tyrosine kinase (IGFR); test: Immunoblot for phospho-IGFR in spinal cord cultures; assay type: cell-based, rat
# Procedure: as §1, §3
# [3] = test system: motor neurons expressing G59S p150^glued; test: Motor neuron death from HSV-expressed mutant p150glued in spinal cord cultures; assay type: cell-based, rat; conditions: 6 days post-infection; treatment daily or every other day
# Excerpt: Various cDNAs were cloned into the PrpUC amplicon plasmid and were used to generate recombinant HSV as previously described (Neve et al., 1997). The titer of viruses used in these studies were routinely 3-5×10^7 plaque-forming units/ml. The cDNA for wild type/mutant SOD and wild type/mutant p150^glued were gifts of D. Borchelt and E. Holzbaur, respectively. The K295R mutant version of chick src was a gift of J. Brugge.
# Mutations in superoxide dismutase (SOD) or the p150^glued subunit of dynactin are known to account for a familial form of ALS in a subpopulation of individuals (Rosen, 1993; Puls et al., 2003; Bruijn et al., 2004). We inquired whether expression the mutant forms of SOD or p150^glued caused motor neuron death in vitro and if Trk antagonism was neuroprotective. Recombinant herpes simplex viruses (HSVs) were generated that expressed wild type or mutant form of SOD (G85R) and wild type or mutant p150^glued (G59S). […] Spinal cord cultures were infected with virus at 14 DIV and the number of motor neurons was determined 2, 4, 6 or 8 days later (FIG. 4, panel a.).
# We next determined if KW6002 could protect motor neurons from the toxic effects of mutant proteins. Spinal cord cultures were infected with viruses expressing wild type or mutant versions of SOD or p150^glued at 14 DIV, then treated with drug or vehicle for 4 days (FIG. 4, panel b.). […]
# [4] = 6 hours post drug administration
# [5] = 48 hours post drug administration
compound,measurement,setting,value
"CCCn1c(=O)[nH]c(=O)c2[nH]cnc21 [enprofylline, 3-propylxanthine]","% motor neuron death, short term (acute) treatment","[1]; drug added 30 minutes prior to excitotoxic challenge, counted 24 hours later",~40% and 46±4%
same,excitotoxic motor neuron death,"[1]; drug for 4 days (added 4 and 2 days) prior to 100 μM kainic acid 1 h, SMI-32(+) motor neurons counted 24 h later",completely blocked the loss of SMI(+) neurons; also recorded: no excitotoxic motor neuron death
same,abundance of phosphoTrk,"Trk; 6, 24 or 48 hours, 100 μM enprofylline, 30 nM CEP-4416",decrease in the abundance of phosphoTrk at all time points
same,phosphorylation of Trk,Trk; [4],"decreases in the phosphorylation of Trk, MAP kinase and Akt"
same,abundance of phosphoTrk,Trk; 24 hours treatment,"robust reduction in phosphoTrk, phosphoMAPK and phosphoAKT"
same,abundance of phosphoTrk,Trk; [5],decrease in phosphoTrk could still be detected
same,abundance of phosphoMAPK,"MAP kinase; 6 and 24 hours, 100 μM enprofylline, 30 nM CEP-4416",decrease in the abundance of phosphoAKT and phosphoMAPK at 6 and 24 hours
same,phosphorylation of MAP kinase,MAP kinase; [4],"decreases in the phosphorylation of Trk, MAP kinase and Akt"
same,abundance of phosphoMAPK,MAP kinase; 24 hours treatment,"robust reduction in phosphoTrk, phosphoMAPK and phosphoAKT"
same,phosphorylation of MAPK,MAP kinase; [5],largely returned to baseline
same,IGF1-induced IGFR phosphorylation,"[2]; 24 hour pretreatment, then acute IGF1",neither CEP-4416 nor enprofylline blunted the acute response; also recorded: undiminished by 24 hour pretreatment
same,basal state of IGFR phosphorylation,[2]; 24 hour treatment,Neither drug led to an alteration in the abundance in the phosphorylated species; also recorded: had no effect on the basal state of IGFR phosphorylation
same,motor neuron survival / toxicity of G59S p150glued,[3],significantly greater number of motor neurons; also recorded: completely prevented the toxicity of mutant protein expression
